# Reference: US9682925B2, “Cyclopropaneamine compound” (TAKEDA PHARMACEUTICAL COMPANY LIMITED, priority 2011, dated 2017)
# Counter-ions that a name gives are not always drawn.
# Legend:
# Assay type in all cases: biochemical
# human LSD1(171-852) = molecular target: T1, human LSD1(171-852) (Homo sapiens, UniProt O60341); test: Measurement of LSD1 inhibitory activity (time-resolved fluorescence, biotin-histone H3 mono methylated K4 peptide); settings: read-out: LSD1 IC50 value
# T1 construct: to give hLSD1(171-852) purified product; made in house; host or cells: Escherichia coli C43(DE3) pLysS
# MAO-A = molecular target: T2, MAO-A (Homo sapiens, UniProt P21397); test: Measurement of MAO-A inhibitory activity (MAO-Glo Assay)
# T2 construct: purchased Sigma-Aldrich Co. LLC
# T2 sequence (P21397 1-527): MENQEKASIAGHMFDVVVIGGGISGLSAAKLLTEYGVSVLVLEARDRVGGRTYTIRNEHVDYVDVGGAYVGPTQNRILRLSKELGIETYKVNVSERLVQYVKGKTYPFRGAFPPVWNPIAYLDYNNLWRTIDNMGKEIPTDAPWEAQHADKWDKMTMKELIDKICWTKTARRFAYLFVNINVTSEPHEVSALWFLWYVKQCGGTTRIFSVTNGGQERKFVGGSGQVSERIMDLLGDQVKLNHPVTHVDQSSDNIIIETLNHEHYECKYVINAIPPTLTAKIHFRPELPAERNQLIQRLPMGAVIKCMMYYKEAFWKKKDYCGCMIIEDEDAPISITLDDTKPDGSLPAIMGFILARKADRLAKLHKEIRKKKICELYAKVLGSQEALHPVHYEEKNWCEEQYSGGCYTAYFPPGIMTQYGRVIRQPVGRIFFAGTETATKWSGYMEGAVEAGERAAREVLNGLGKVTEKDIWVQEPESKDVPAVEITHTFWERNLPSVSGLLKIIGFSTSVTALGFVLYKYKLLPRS
# Method in brief: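 Luminescent MAO-Glo read-out: % inhibition computed from counts relative to enzyme-only control and enzyme-free blank. Compound and 400 ng MAO-A in HEPES pH 7.5 with 5% glycerol stood 10 min at room temperature before MAO substrate (160 μM stock) started a 60 min reaction.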
# MAO-B = molecular target: T3, MAO-B (Homo sapiens, UniProt P27338); test: Measurement of MAO-B inhibitory activity (MAO-Glo Assay)
# T3 construct: purchased Sigma-Aldrich Co. LLC
# T3 sequence (P27338 1-520): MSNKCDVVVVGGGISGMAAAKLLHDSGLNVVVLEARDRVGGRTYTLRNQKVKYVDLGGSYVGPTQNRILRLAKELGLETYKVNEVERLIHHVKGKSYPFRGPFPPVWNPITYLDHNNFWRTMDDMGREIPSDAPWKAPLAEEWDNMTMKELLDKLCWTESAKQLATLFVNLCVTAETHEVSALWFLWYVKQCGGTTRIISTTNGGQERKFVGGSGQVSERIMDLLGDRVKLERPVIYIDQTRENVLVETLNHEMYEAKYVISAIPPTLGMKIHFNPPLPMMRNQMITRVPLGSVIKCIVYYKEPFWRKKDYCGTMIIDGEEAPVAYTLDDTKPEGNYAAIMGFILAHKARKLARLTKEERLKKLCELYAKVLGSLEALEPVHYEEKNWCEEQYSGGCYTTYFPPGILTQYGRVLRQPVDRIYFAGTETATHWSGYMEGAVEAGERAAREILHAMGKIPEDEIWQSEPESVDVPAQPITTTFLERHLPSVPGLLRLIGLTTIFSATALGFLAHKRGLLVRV
# Method in brief: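 Percent inhibition was calculated from luciferin-based luminescence, corrected with a blank lacking enzyme and a control lacking compound. The reaction ran 60 min at room temperature after adding MAO substrate (16 µM as added). This followed a 10 min compound–enzyme preincubation in HEPES pH 7.5 buffer.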
IC50 (human LSD1(171-852)) [µM],IC50 (MAO-A) [µM],IC50 (MAO-B) [µM],Structure (SMILES)
0.1,> 10,> 10,"O=C(Nc1ccc([C@@H]2C[C@H]2NCC2CC2)cc1)c1ccc(C2CCCCC2)cc1 (relative stereo) [Example 89, 4-cyclohexyl-N-(4-{trans-2-[(cyclopropylmethyl)amino]cyclopropyl}-phenyl)benzamide]"
< 0.1,4.3,> 10,"O=C(Nc1ccc([C@@H]2C[C@H]2NCc2ccc3nccn3c2)cc1)c1cccc(C(F)(F)F)c1 (relative stereo) [Example 107, N-(4-{trans-2-[(imidazo[1,2-a]pyridin-6-ylmethyl)amino]cyclopropyl}phenyl)-3-(trifluoromethyl)benzamide dihydrochloride]"
< 0.1,0.85,1.5,COc1ccc(CN[C@@H]2C[C@H]2c2ccc(NC(=O)c3ccc(-c4ccccc4)cc3)cc2)cn1 (relative stereo) [Example 54]
< 0.1,> 10,> 10,"CN(C)c1cccc(C(=O)Nc2ccc([C@@H]3C[C@H]3NCC3CC3)cc2)c1 (relative stereo) [Example 83, N-(4-{trans-2-[(cyclopropylmethyl)amino]cyclopropyl}phenyl)-3-(dimethylamino)benzamide bis(trifluoroacetate)]"
< 0.1,7.5,> 10,"O=C(Nc1ccc([C@@H]2C[C@H]2NCC2CC2)cc1)c1ccc(-n2cccc2)cc1 (relative stereo) [Example 117, N-(4-{trans-2-[(cyclopropylmethyl)amino]cyclopropyl}-phenyl)-4-(1H-pyrrol-1-yl)benzamide]"
< 0.1,> 10,> 10,"O=C(Nc1ccc([C@@H]2C[C@H]2NC2CCN(Cc3ccccc3)CC2)cc1)c1ccccc1 (relative stereo) [Example 25, N-(4-{trans-2-[(1-benzyl-piperidin-4-yl)amino]cyclo-propyl}phenyl)-benzamide]"
< 0.1,> 10,> 10,"CN1CCC(N[C@@H]2C[C@H]2c2ccc(N(C)C(=O)c3cccc(C(F)(F)F)c3)cc2)CC1 (relative stereo) [Example 150, N-methyl-N-(4-{trans-2-[(1-methylpiperidin-4-yl)amino]cyclopropyl}phenyl)-3-(trifluoromethyl)benzamide dihydrochloride]"
< 0.1,> 10,> 10,"O=C(Nc1ccc([C@@H]2C[C@H]2NC2c3ccccc3-c3ccccc32)cc1)c1ccccc1 (relative stereo) [Example 21, N-{4-[trans-2-(9H-fluoren-9-ylamino)cyclo-propyl]phenyl}-benzamide]"
< 0.1,> 10,> 10,"CC(C)(C)c1ccc(C(=O)Nc2ccc([C@@H]3C[C@H]3NCC3CC3)cc2)cc1 (relative stereo) [Example 70, 4-tert-butyl-N-(4-{trans-2-[(cyclopropylmethyl)amino]cyclopropyl}phenyl)benzamide hydrochloride]"
< 0.1,8.2,> 10,"O=C(Nc1ccc([C@@H]2C[C@H]2NCC2CC2)cc1)c1cc2ccccc2o1 (relative stereo) [Example 129, N-(4-{trans-2-[(cyclopropyl-methyl)amino]cyclo-propyl}phenyl)-1-benzofuran-2-carboxamide]"
< 0.1,> 10,> 10,"O=C(Nc1ccc([C@@H]2C[C@H]2NCC2CC2)cc1)c1ccc(-c2ncccn2)cc1 (relative stereo) [Example 138, N-(4-{trans-2-[(cyclopropylmethyl)amino]cyclopropyl}phenyl)-4-(pyrimidin-2-yl)benzamide hydrochloride]"
< 0.1,2.6,> 10,"O=C(Nc1ccc([C@@H]2C[C@H]2NCc2ccc3ccccc3c2)cc1)c1ccccc1 (relative stereo) [Example 18, N-(4-{trans-2-[(naphthalen-2-ylmethyl)amino]-cyclopropyl}-phenyl)benzamide]"
0.19,> 10,> 10,"O=C(Nc1ccc([C@@H]2C[C@H]2NCc2ccccc2)cc1)c1cccc(CCc2ccccc2)c1 (relative stereo) [Example 34, N-{4-[trans-2-(benzylamino)cyclopropyl]phenyl}-3-(2-phenylethyl)benzamide]"
< 0.1,> 10,> 10,"O=C(Nc1ccc([C@@H]2C[C@H]2NCC2CC2)cc1)C1CCCCC1 (relative stereo) [Example 141, N-(4-{trans-2-[(cyclopropylmethyl)amino]cyclopropyl}phenyl)-cyclohexanecarboxamide hydrochloride]"
0.26,> 10,> 10,"CC(COc1ccccc1)N[C@@H]1C[C@H]1c1ccc(NC(=O)c2ccc(-c3ccccc3)cc2)cc1 (relative stereo) [Example 56, N-(4-{trans-2-[(1-methyl-2-phenoxyethyl)-amino]cyclo-propyl}phenyl)-biphenyl-4-carboxamide]"
< 0.1,> 10,> 10,"CN1CCN(c2ccc(C(=O)Nc3ccc([C@@H]4C[C@H]4NCC4CC4)cc3)cc2)CC1 (relative stereo) [Example 130, N-(4-{trans-2-[(cyclopropyl-methyl)amino]cyclo-propyl}phenyl)-4-(4-methylpiperazin-1-yl)benzamide]"
< 0.1,5.6,> 10,"Cc1cccc(C(=O)Nc2ccc([C@@H]3C[C@H]3NCc3ccccc3)cc2)c1 (relative stereo) [Example 7, N-{4-[trans-2-(benzylamino)cyclopropyl]phenyl}-3-methylbenzamide]"
0.11,3.3,4.7,"COc1ccc(CN[C@@H]2C[C@H]2c2ccc(NC(=O)c3ccc(-c4ccccc4)cc3)cc2)cc1 (relative stereo) [Example 43, N-(4-{trans-2-[(4-methoxybenzyl)-amino]cyclo-propyl}phenyl)-biphenyl-4-carboxamide]"
< 0.1,> 10,3.2,"CC(N[C@@H]1C[C@H]1c1ccc(NC(=O)c2ccccc2)cc1)c1ccccc1 (relative stereo) [Example 19, N-(4-{trans-2-[(1-phenyl-ethyl)amino]-cyclopropyl}-phenyl)benzamide]"
< 0.1,> 10,> 10,"O=C(Nc1ccc([C@@H]2C[C@H]2NCC2CC2)cc1)c1ccc2[nH]ccc2c1 (relative stereo) [Example 114, N-(4-{trans-2-[(cyclopropylmethyl)amino]cyclopropyl}phenyl)-1H-indole-5-carboxamide trifluoroacetate]"
< 0.1,> 10,> 10,"CC(=O)N1CCC(N[C@@H]2C[C@H]2c2ccc(NC(=O)c3ccc(-c4ccccc4)cc3)cc2)CC1 (relative stereo) [Example 62, N-(4-{trans-2-[(1-acetylpiperidin-4-yl)amino]cyclopropyl}phenyl)biphenyl-4-carboxamide hydrochloride]"
< 0.1,> 10,> 10,"O=C(Nc1ccc([C@@H]2C[C@H]2NCC2CC2)cc1)c1ccc(-c2ccncc2)cc1 (relative stereo) [Example 96, N-(4-{trans-2-[(cyclopropylmethyl)-amino]cyclopropyl}-phenyl)-4-(pyridin-4-yl)benzamide]"
